Molecular target: T1, T1R1/T1R3 umami receptor (Homo sapiens, UniProt Q7RTX0+Q7RTX1, C757R)
T1 construct: expressed in transfected cells; host or cells: HEK293 cells, transiently transfected (Lipofectamine 2000)
T1 sequence (Q7RTX1 21-841): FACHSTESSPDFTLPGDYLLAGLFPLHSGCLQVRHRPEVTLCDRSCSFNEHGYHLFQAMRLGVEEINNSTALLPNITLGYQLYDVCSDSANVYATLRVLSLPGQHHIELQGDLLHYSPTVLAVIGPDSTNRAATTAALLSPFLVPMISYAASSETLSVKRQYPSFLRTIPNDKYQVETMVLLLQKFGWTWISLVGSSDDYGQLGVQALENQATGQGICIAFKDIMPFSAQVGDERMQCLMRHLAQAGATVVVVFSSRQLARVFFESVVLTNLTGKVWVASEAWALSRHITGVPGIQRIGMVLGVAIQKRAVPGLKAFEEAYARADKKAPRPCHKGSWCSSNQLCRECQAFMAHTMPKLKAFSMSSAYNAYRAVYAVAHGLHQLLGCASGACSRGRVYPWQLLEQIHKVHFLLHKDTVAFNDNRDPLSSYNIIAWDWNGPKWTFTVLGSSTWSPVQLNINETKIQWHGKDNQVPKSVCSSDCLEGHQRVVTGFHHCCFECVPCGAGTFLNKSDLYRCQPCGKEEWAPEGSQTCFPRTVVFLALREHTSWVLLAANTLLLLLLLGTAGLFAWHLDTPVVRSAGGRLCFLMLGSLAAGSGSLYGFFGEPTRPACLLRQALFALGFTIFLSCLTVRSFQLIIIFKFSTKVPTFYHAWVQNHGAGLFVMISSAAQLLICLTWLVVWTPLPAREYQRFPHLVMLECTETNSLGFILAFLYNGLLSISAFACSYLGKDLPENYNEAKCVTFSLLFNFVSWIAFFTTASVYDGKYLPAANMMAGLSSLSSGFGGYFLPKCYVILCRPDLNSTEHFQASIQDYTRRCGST
T1 sequence (Q7RTX0 with tags, fused parts or gaps C757R): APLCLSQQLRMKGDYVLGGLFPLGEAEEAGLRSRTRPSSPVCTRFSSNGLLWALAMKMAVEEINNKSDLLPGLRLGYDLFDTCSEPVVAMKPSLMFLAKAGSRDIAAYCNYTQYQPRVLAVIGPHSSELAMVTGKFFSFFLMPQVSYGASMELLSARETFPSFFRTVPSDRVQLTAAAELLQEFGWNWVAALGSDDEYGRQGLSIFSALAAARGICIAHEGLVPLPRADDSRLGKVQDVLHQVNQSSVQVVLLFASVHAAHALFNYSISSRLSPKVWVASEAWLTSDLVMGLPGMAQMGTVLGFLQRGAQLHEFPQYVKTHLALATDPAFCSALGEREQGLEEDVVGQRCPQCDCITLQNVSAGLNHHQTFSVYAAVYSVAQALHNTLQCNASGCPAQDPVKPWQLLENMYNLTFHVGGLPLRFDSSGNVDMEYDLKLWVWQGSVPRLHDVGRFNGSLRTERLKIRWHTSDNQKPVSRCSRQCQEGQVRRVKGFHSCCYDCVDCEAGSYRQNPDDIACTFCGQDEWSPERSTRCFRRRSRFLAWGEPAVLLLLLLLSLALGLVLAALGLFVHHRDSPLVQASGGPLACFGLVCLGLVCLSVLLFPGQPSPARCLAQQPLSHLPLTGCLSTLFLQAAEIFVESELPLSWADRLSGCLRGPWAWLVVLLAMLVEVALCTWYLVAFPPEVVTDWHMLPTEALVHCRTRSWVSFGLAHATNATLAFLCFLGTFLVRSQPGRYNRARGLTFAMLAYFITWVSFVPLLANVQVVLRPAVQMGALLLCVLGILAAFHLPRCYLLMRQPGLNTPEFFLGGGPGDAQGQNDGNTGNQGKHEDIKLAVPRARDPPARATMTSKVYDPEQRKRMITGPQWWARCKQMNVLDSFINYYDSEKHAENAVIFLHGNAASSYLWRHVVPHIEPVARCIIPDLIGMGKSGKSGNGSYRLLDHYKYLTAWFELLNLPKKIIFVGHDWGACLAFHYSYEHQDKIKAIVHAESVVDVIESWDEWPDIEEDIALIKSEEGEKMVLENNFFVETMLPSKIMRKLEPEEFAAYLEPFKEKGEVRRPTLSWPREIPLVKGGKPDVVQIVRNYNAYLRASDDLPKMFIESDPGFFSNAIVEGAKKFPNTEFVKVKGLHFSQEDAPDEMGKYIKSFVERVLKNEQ
Assay: BRET assay (T1R1/T1R3-Rluc and GFP-2-β-arrestin-2 in HEK293 cells)
Format: cell-based
Design: key: +: A BRET signal above the values achieved for buffer alone was defined as umami receptor-specific
Conditions: MSG 10 mM
Experimental: FIG. 2 Activation of the T1R1/T1R3 umami receptor expressed in HEK293-Gα15 cells as measured by BRET assays as described in Example 2. Test solutions (or buffer) as indicated and substrate were added to the cells. The BRET signals were determined as the ratio between readings taken at the acceptor wavelength (515 nm) divided by the signals determined for the donor (400 nm). To correct for background signal due to overlap of donor emission at the acceptor wavelength, the BRET ratio was determined in parallel for cells expressing the donor alone (T1R1/T1R3-Rluc). This BRET background value was subtracted from the BRET value obtained for the cells expressing both BRET partners (BRET=BRET ratio−background ratio). A BRET signal above the values achieved for buffer alone was defined as umami receptor-specific (see also table 2B).
The extracts or crude mixtures described below are examples for natural samples unsuitable for testing with a calcium-based receptor assay due to their high non-specific background signal. They are from different origin and are selected to illustrate a wide range of potential test samples. […] Calcium-Based Receptor Assay: Activation of the T1R1/T1R3 umami receptor expressed in HEK293-Gα15 cells has been measured by monitoring the release of intracellular calcium. […]

Structure (SMILES): N[C@@H](CCC(=O)O)C(=O)[O-].[Na+] [MSG, Monosodium glutamate]
- T1R1/T1R3 receptor-specific signal, BRET assay: +
